Consider 14 compounds from paper PMC10149936, “Cofilin activation in pancreatic acinar cells plays a pivotal convergent role for mediating CCK-stimulated enzyme secretion and growth” (Frontiers in Physiology, 2023).

No end group written: not given here.

The test system of assay [1] is LIMK (pT508) in pancreatic acini. As to the kind of experiment: LIMK phosphorylation (pT508 LIMK Western blot) in isolated rat pancreatic acini. It is filed as cell-based. To be noted: for decrease of basal levels of LIMK phosphorylation: 10 µM, 3 h preincubation, n at least 4. On the procedure:
(§1) Pancreatic acini preparations were obtained by collagenase digestion as previously described ([Bissonnette et al., 1984]; [Sato et al., 1989]; [Ramos-Alvarez and Jensen, 2018]). After collagenase digestion, dispersed acini were preincubated with different inhibitors in standard incubation solution ([Ramos-Alvarez and Jensen, 2018]; [Ramos-Ãlvarez et al., 2020]) for 3 h at 37°C under conditions specific for PKD/PKC, Src, PI3K, MAPKs, SSH1, LIMK, cofilin, other phosphatases and PAK4 inhibitors, as described previously ([Ramos-Alvarez and Jensen, 2018]; [Ramos-Ãlvarez et al., 2020]). Isolated acini and CCK1-R/Panc-1 cells (M&M 2.2.1) were also preincubated with two SSH1 inhibitors, D3 (25 μM, 1 h) ([Li et al., 2015]) or SE (50 μM, 3 h for acini; 24 h for CCK1-R/Panc-1 cells) ([Lee et al., 2017]). After preincubation, 1 mL aliquots of dispersed acini were incubated at 37°C for 3–15 min with CCK-8 (0.3 nM or 100 nM), for 5–15 min with TPA (1 µM) or without stimulants, used as control. Cells were lysed in lysis buffer (50 mM Tris/HCl pH 7.5, 150 mM NaCl, 1% Triton X-100, 1% deoxycholate, 0.1% sodium azide, 1 mM EGTA, 0.4 mM EDTA, 0.2 mM sodium orthovanadate, 1 mM PMSF, and one protease inhibitor tablet per 10 mL). After sonication, lysates were centrifuged at 10,000×g for 15 min at 4°C and protein concentration was measured using the Bio-Rad protein assay reagent. Finally, cells were processed as below for Western blotting.
(§2) Both concentrations of CCK-8 were used because CCK-8 is reported to have different responses with physiological and supraphysiological concentrations contributing to physiological and pathophysiological processes such as pancreatitis ([Dufresne et al., 2006]).
(§3) Western blotting and immunoprecipitation were performed as described previously ([Ramos-Alvarez and Jensen, 2018]). Whole cell lysates were subjected to SDS-PAGE using 4%–20% Tris–Glycine gels. […] Finally, membranes were then washed again twice in blocking buffer for 4 min, twice in washing buffer for 4 min, incubated for 4 min with chemiluminescence detection reagents. The intensity of the protein bands was measured using GeneTools software from Syngene, which were assessed in the linear detection range.
Isolated pancreatic acini were incubated with either no addition (control), CCK-8 (0.3 and 100 nM) or TPA (1 µM) for the indicated periods of time and then lysed. Western blots were analyzed using anti-pT508 LIMK, anti-pS3 cofilin and anti-pS978 SSH1, which […] the activation states of LIMK, cofilin and SSH1. Bands were visualized using chemiluminescence and quantified by densitometry.

For assay [2], the system named is cofilin (pS3) in rat pancreatic acini. As to the kind of experiment: cofilin activation (phospho-pS3 cofilin Western blot) in isolated rat pancreatic acini. Particulars: for inhibition of dephosphorylation of cofilin stimulated by CCK-8 or TPA: PF-3758309 0.1 nM or LCH-7749944 30 µM; for inhibition of dephosphorylation of cofilin stimulated by CCK-8 or TPA / effect on basal phosphorylation level of cofilin / reversal of cofilin dephosphorylation stimulated by CCK-8 and TPA: 3 h; for inhibition of dephosphorylation of cofilin stimulated by CCK-8 or TPA / reversal of cofilin dephosphorylation by CCK-8: CCK-8 0.3 and 100 nM 3 min; for inhibition of dephosphorylation of cofilin stimulated by CCK-8 or TPA / reversal of cofilin dephosphorylation stimulated by CCK-8 and TPA: TPA 1 µM 5 min; for decrease of basal phosphorylation levels of cofilin / inhibition of CCK-8-stimulated dephosphorylation of cofilin: LIMK inhibitor 10 µM 3 h; for inhibition of CCK-8-stimulated dephosphorylation of cofilin: CCK-8 0.3 or 100 nM 3 min; for reversal of cofilin dephosphorylation by CCK-8: Wortmannin 1 µM, LY294002 100 µM, SB202190 10 µM, U0126 10 µM, Y-27632 10 µM 1 h, SP600125 20 µM 3 h; for effect on basal phosphorylation level of cofilin / reversal of cofilin dephosphorylation stimulated by CCK-8 and TPA: GFX 5 µM, kbNB 0.1 µM or PP2 10 µM; for reversal of cofilin dephosphorylation stimulated by CCK-8 and TPA: CCK-8 100 nM 3 min; for effect on cofilin phosphorylation (pS3): 1 min, CCK-8 100 nM, carbachol 1 μM, bombesin 1 nM, secretin 1 nM or VIP 1 nM, n at least 3. It is filed as cell-based. On the procedure:
as §1, §2, §3
All experiments were performed at least 3 times. Data are presented as mean ± SEM and were analyzed with the non-parametric Kruskal–Wallis analysis (data was not normally distributed) and the Dunn’s multiple comparison test using the GraphPad Prism 8.0 software. P values < 0.05 were considered significant.
(A) Isolated pancreatic acini were incubated in the absence or presence of CCK-8 (100 nM), carbachol (1 μM), bombesin (1 nM), secretin (1 nM) or VIP (1 nM) for 1 min and then lysed. (B) Isolated pancreatic acini were incubated in the absence or presence of CCK-8 and CCK-JMV (at the indicate concentrations) for 3 min and then lysed. Western blots were analyzed using anti-pS3 cofilin, which mediates the activation state of cofilin. Bands were visualized using chemiluminescence and quantified by densitometry.

Assay [3] relates to cofilin (pS3) in CCK1-R/Panc-1 cells. As to the kind of experiment: cofilin activation (pS3 cofilin Western blot) in CCK1-R/Panc-1 cells. The assay is classed as cell-based, human. Particulars: CCK-8 0.3 or 100 nM; D3 25 µM 1 h or SE 50 µM 24 h. The protocol:
CCK1 receptor transfected Panc-1 (CCK1-R/Panc-1) cells ([Berna et al., 2009]) and AR42J cells, were cultured in DMEM supplemented with 10% FBS and 1% penicillin/streptomycin and in RPMI supplemented with 10% FBS and 1% penicillin/streptomycin, respectively; and split 1:10 weekly with trypsin/EDTA, after washing in PBS. Finally, cells were seeded in 6-well plate and serum starved overnight, until they were 80% confluent. Cells were incubated at 37°C in 5% CO2/95% air. AR42J cells were treated with 100 nM dexamethasone for 72°h, which stimulates their differentiation into exocrine cells ([Logsdon, 1986]).
Pancreatic acini preparations were obtained by collagenase digestion as previously described ([Bissonnette et al., 1984]; [Sato et al., 1989]; [Ramos-Alvarez and Jensen, 2018]). […] Isolated acini and CCK1-R/Panc-1 cells (M&M 2.2.1) were also preincubated with two SSH1 inhibitors, D3 (25 μM, 1 h) ([Li et al., 2015]) or SE (50 μM, 3 h for acini; 24 h for CCK1-R/Panc-1 cells) ([Lee et al., 2017]). […] After sonication, lysates were centrifuged at 10,000×g for 15 min at 4°C and protein concentration was measured using the Bio-Rad protein assay reagent. […]
Western blotting and immunoprecipitation were performed as described previously ([Ramos-Alvarez and Jensen, 2018]). […] The intensity of the protein bands was measured using GeneTools software from Syngene, which were assessed in the linear detection range. […]
FIGURE 3 Effect of two SSH1 inhibitors, D3 and SE (A–C), or SSH1 siRNA (D), on the ability of CCK-8 (0.3 and 100 nM) to activate LIMK and cofilin in pancreatic acini (A/B) and activate cofilin in CCK1-R/Panc-1 cells (C/D). […] Western blots were analyzed using anti-pS3 cofilin and anti-pT508 […], and the knockdown effect of SSH1 was confirmed by Western blots using SSH1 (C-term) antibody. Bands were visualized using chemiluminescence and quantified by densitometry. […] Results are expressed as % of basal stimulation of the control group. *, p < 0.05 compared to the control group; ∞, p < 0.05 compared to stimulants without inhibitors. […]

Setting [4] is: SE 50 µM 3 h or D3 25 µM 1 h, no stimulant.
The mark [5] stands for this setting: inhibitor 10 µM 3 h, CCK-8 0.3 or 100 nM 3 min.

As to `Cc1ccccc1N1C(=O)/C(=C/c2ccc(OCc3ccc(C(=O)O)cc3)cc2)SC1=S` [D3, (Z)-4-((4-((4-oxo-2-thioxo-3-(o-tolyl)thiazolidin-5-ylidene)methyl)phenoxy)methyl)benzoic acid], the inhibition at 25 µM in assay [1] (Rattus norvegicus, CCK-8 0.3 or 100 nM, 5 min, SE 50 µM 3 h or D3 25 µM 1 h preincubation, read-out: inhibition of CCK-8's dephosphorylation of LIMK) is 20%; in assay [2] (Rattus norvegicus, CCK-8 0.3 or 100 nM, 5 min, SE 50 µM 3 h or D3 25 µM 1 h preincubation, n at least 4, read-out: inhibition of CCK-8-caused cofilin dephosphorylation) it was 32 to 49%. The “effect on basal phosphorylation of LIMK” value in assay [1] (setting [4]) was “Neither D3 nor SE affected the basal phosphorylation of LIMK or cofilin”. For the same compound, the “effect on basal phosphorylation of cofilin” value in assay [2] (setting [4]) is on record as “Neither D3 nor SE affected the basal phosphorylation of LIMK or cofilin”. The “inhibition of CCK-8-induced dephosphorylation of cofilin” value in assay [3] is reported as “completely inhibited”. As for `COc1cccc(Nc2nc(NCC3CCCO3)c3ccccc3n2)c1` (stereo not drawn) [LCH-7749944, N2-(3-methoxyphenyl)-N4-[(oxolan-2-yl)methyl]quinazoline-2,4-diamine], the “inhibition of dephosphorylation of cofilin stimulated by CCK-8 or TPA” value in assay [2] is recorded as “completely inhibited”.

For the compound `CC(C)C(=O)Nc1ncc(-c2cc(C(F)F)nn2-c2c(Cl)cccc2Cl)s1` [LIMKi3], the “decrease of basal levels of LIMK phosphorylation” value in assay [1] (no stimulant) is 33%. Besides, the “inhibition of LIMK dephosphorylation caused by CCK-8” value in assay [1] (setting [5]) is reported as “completely inhibited”. For the same compound, the “decrease of basal phosphorylation levels of cofilin” value in assay [2] (no stimulant) was 39%. Also, the “inhibition of CCK-8-stimulated dephosphorylation of cofilin” value in assay [2] was “did not inhibit”. As to `O=c1cc(N2CCOCC2)oc2c(-c3ccccc3)cccc12` [LY294002], the “reversal of cofilin dephosphorylation by CCK-8” value in assay [2] is given as “not PI3K or p38”. Regarding `Cc1nc(Nc2[nH]nc3c2CN(C(=O)N[C@H](CN(C)C)c2ccccc2)C3(C)C)c2sccc2n1` [PF-3758309], the “inhibition of dephosphorylation of cofilin stimulated by CCK-8 or TPA” value in assay [2] is “completely inhibited”. `CC(C)(C)n1nc(-c2ccc(Cl)cc2)c2c(N)ncnc21` [PP2]: in assay [2] (no stimulant), the “effect on basal phosphorylation level of cofilin” value is “None of these inhibitors altered the basal phosphorylation level of cofilin”. Besides, in assay [2], the “reversal of cofilin dephosphorylation stimulated by CCK-8 and TPA” value is “completely reversed”. In the case of `Cc1c[nH]c2ncnc(-c3ccc(NC(=O)N(CCO)c4ccccc4)cc3)c12` [SR7826], the “decrease of basal levels of LIMK phosphorylation” value in assay [1] (no stimulant) came out at 33%. In assay [1] (setting [5]), the “increase in LIMK phosphorylation with CCK-8 stimulation” value is 80% and the “inhibition of LIMK dephosphorylation caused by CCK-8” value is given as “completely inhibited”. The “decrease of basal phosphorylation levels of cofilin” value in assay [2] (no stimulant) is 67%. For the same compound, the “inhibition of CCK-8-stimulated dephosphorylation of cofilin” value in assay [2] is “did not inhibit”.

Consider `COC[C@H]1OC(=O)c2coc3c2[C@@]1(C)C1=C(C3=O)[C@@H]2CCC(=O)[C@@]2(C)C[C@H]1OC(C)=O` [Wortmannin], for which the “reversal of cofilin dephosphorylation by CCK-8” value in assay [2] is on record as “not PI3K or p38”. On the same count and under the same terms, the entry for `C[C@@H](N)[C@H]1CC[C@H](C(=O)Nc2ccncc2)CC1` [Y-27632] is “completely reversed”.

Regarding `C[N+](C)(C)CCOC(N)=O` [carbachol], the “effect on cofilin phosphorylation (pS3)” value in assay [2] is listed as “rapidly decreased cofilin phosphorylation”. For KbNB142-70, in assay [2] (no stimulant), the “effect on basal phosphorylation level of cofilin” value is listed as “None of these inhibitors altered the basal phosphorylation level of cofilin”. The “reversal of cofilin dephosphorylation stimulated by CCK-8 and TPA” value in assay [2] is “completely reversed”. Regarding “VIP: pancreatic acinar secretagogue (HSDAVFTDNYTRLRKQMAVKKYLNSILN; ends and bridges not checked; UniProt P01282 125-152, looked up)”, the “effect on cofilin phosphorylation (pS3)” value in assay [2] is “rapidly decreased cofilin phosphorylation”. On the same count and under the same terms, the entry for bombesin is “rapidly decreased cofilin phosphorylation”. For secretin, the “effect on cofilin phosphorylation (pS3)” value in assay [2] is given as “rapidly decreased cofilin phosphorylation”.
